Reference: patent US4564612A, “Condensed, seven-membered ring compounds and their use” (Takeda Chemical Industries, Ltd., priority 1983, dated 1986)
Counter-ions that a name gives are not always drawn. Like-named read-outs stand apart in the source and are kept apart here.

Assays:
[1] = system: hypertensive reaction by angiotensin I; assay: Effect against hypertensive activity of angiotensin I in rats, intravenous administration; type: in vivo, rats (Sprague-Dawley); settings: 300 μg/kg i.v., male rats
Procedure: (§1) Effect of the Compounds of the Present Invention against Hypertensive Activity of Angiotensin I.
Male rats (Sprague-Dawley) weighing 300 to 400 g which were fed under free access to drinking water and feed were used as experimental animals. The rats were anesthetized with intraperitoneal administration of pentobarbital sodium (50 mg/kg) on the day before the test day and a polyethylene tube was inserted into each of the femoral artery for measurement of blood pressure and the femoral vein for injection of angiotensin I and II. And the tubes were fixed.
On the test day, an average blood pressure in the control phase was measured by an electric hemodynamometer (MPU-0.5-290-0-III model manufactured by NEC-Sanei, Japan) and recorded by a polygraph (NEC-Sanei, Type 365 or Nippon Kohden Type RM-45, and thereafter angiotensin I and then angiotensin II were injected through the femoral vein at a dose of 300 ng/kg and 100 ng/kg, respectively, to measure the hypertensive activity. […] In calculating the percent inhibition to the hypertensive activity of angiotensin I, the percent inhibitory value was corrected based on the variation with time in the hypertensive reaction by antiotensin II.

[2] = biological target: T1, Angiotensin I Converting Enzyme (ACE) (Oryctolagus cuniculus, UniProt P12822); assay: Inhibition of Angiotensin I Converting Enzyme (ACE), HHL substrate, modified Cushman method; type: biochemical; settings: read-out: ACE inhibitory activity (%); for inhibition at 1 µM: concentration 1 μM
T1 sequence (P12822 34-1310): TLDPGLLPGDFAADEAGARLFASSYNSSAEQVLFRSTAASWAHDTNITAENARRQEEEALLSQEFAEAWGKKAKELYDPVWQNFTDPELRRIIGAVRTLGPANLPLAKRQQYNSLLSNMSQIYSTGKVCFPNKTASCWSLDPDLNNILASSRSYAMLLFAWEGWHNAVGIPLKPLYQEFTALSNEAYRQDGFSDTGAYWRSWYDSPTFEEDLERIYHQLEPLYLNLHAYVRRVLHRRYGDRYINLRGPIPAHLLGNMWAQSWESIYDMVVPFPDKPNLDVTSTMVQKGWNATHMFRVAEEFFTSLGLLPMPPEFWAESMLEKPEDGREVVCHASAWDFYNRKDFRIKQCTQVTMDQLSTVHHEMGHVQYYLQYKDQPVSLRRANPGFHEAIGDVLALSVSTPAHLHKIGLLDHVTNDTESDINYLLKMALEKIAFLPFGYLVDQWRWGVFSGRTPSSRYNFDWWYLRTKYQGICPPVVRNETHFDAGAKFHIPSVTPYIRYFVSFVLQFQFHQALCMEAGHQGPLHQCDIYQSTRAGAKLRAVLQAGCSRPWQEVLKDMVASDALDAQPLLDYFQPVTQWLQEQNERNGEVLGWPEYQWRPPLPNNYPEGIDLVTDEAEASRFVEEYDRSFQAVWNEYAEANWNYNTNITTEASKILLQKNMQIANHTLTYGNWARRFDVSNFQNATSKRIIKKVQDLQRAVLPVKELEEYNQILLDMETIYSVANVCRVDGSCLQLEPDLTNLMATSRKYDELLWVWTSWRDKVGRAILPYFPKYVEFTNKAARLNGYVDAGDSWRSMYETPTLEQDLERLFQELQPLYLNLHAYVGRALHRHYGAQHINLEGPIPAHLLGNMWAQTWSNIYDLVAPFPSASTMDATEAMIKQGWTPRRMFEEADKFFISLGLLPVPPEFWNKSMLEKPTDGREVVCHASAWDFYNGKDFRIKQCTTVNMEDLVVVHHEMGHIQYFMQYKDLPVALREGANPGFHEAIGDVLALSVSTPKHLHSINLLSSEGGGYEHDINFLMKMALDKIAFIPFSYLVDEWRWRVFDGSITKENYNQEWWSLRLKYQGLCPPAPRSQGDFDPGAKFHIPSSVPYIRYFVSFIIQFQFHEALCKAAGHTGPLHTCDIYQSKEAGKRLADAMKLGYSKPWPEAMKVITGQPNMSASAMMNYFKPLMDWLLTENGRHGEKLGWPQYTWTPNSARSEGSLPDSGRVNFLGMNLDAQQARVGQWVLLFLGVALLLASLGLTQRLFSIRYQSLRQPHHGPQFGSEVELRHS
Procedure: Experiment on Inhibition of Angiotensin I Converting Enzyme (ACE) by the Compounds of this Invention. […] That is, using hippuryl-L-histidyl-L-leucine (HHL) as the substrate, the ACE inhibitory activity was determined in terms of percent inhibition on the amount of hippuric acid produced by ACE when the compound of the present invention was added. […] In this experiment, a borate-HCl buffer solution containing dimethylsulfoxide at a concentration equal to that of the test solution was used as a control. After warming the solution at 37° C. for 1 hour, 150 μl of 1N hydrochloric acid was added to the solution to terminate the reaction. After 0.8 ml of ethyl acetate was added the solution was centrifuged at 11500 rpm for 2 minutes. A 0.5 ml aliquot was separated from the ethyl acetate layer and dried at a temperature below 40° C. under nitrogen gas streams. The residue was mixed thoroughly with 4.5 ml of distilled water, and the mixture was subjected to colorimetry at a wavelength of 228 nm.

[3] = system: hypertensive reaction by angiotensin I; assay: Effect against hypertensive activity of angiotensin I in rats, oral administration; type: in vivo, rats (Sprague-Dawley); settings: male rats
Procedure: as §1
Male rats (Sprague-Dawley) weighing 250 to 350 g which were fed under free access to drinking water and feed were used as experimental animals. The rats were anesthetized with intraperitoneal administration of pentobarbital sodium (50 mg/kg) on the day before the test day and a polyethylene tube was inserted into each of the femoral artery for measurement of blood pressure and the femoral vein for injection of angiotensin I and II. And the tubes were fixed.
On the test day, an average blood pressure in the control phase was measured by an electric hemodynamometer (MPU-0.5-290-0-III model manufactured by NEC-Sanei, Japan) and recorded by a polygraph (NEC-Sanei, Type 365 or Nippon Kohden Type RM-45), and thereafter angiotensin I and then angiotensin II were injected through the femoral vein at a dose of 300 ng/kg and 100 ng/kg, respectively, to measure the hypertensive activity. Then, 3 and 10 mg/kg of the compound of the present invention were administered orally as an aqueous solution or an aqueous gum arabic suspension, and 20, 60 and 120 minutes after the administration, angiotensin I and II were injected repeatedly to trace hypertensive reactions. In calculating the percent inhibition to the hypertensive activity of angiotensin I, the percent inhibitory value was corrected based on the variation with time in the hypertensive reaction by angiotensin II.

[4] = 10 mg/kg orally, after 120 min.

CCOC(=O)[C@H](CCCCCCN)N[C@H]1CSc2ccccc2N(CC(=O)O)C1=O [C2 H5]
Inhibition against hypertensive reaction by angiotensin I (%) ([1]; after 5 min): 97%
Inhibition against hypertensive reaction by angiotensin I (%) ([1]; after 10 min): 97%
Inhibition against hypertensive reaction by angiotensin I (%) ([1]; after 30 min): 100%
Inhibition against hypertensive reaction by angiotensin I (%) ([1]; after 60 min): 96%
Inhibition against hypertensive reaction by angiotensin I (%) ([1]; after 90 min): 87%
Inhibition against hypertensive reaction by angiotensin I (%) ([1]; after 120 min): 73%

NCCCCCC[C@H](N[C@H]1CSc2ccccc2N(CC(=O)O)C1=O)C(=O)O [H]
Inhibition against hypertensive reaction by angiotensin I (%) ([1]; after 5 min): 100%
Inhibition against hypertensive reaction by angiotensin I (%) ([1]; after 10 min): 97%
Inhibition against hypertensive reaction by angiotensin I (%) ([1]; after 30 min): 97%
Inhibition against hypertensive reaction by angiotensin I (%) ([1]; after 60 min): 91%
Inhibition against hypertensive reaction by angiotensin I (%) ([1]; after 90 min): 78%
Inhibition against hypertensive reaction by angiotensin I (%) ([1]; after 120 min): 48%

CCOC(=O)C(CCc1ccccc1)N[C@H]1CSc2ccccc2N(CC(=O)O)C1=O (some centres unmarked) [Example 6]
inhibition at 0.1 µM ([2]; concentration 0.1 μM): 48%
inhibition at 1 µM [2]: 85%

O=C(O)CN1C(=O)[C@@H](N[C@@H](CCc2ccccc2)C(=O)O)CSc2ccccc21 [Example 13, 3(R)-[1(S)-carboxy-3-phenylpropyl]amino-4-oxo-2,3,4,5-tetrahydro-1,5-benzothiazepine-5-acetic acid monosodium salt]
inhibition at 0.01 µM [2]: 46%
inhibition at 0.1 µM [2]: 91%

CCOC(=O)[C@H](CCC1CCCCC1)N[C@H]1CSc2ccccc2N(CC(=O)O)C1=O.Cl [Example 9, 3(R)-[1(S)-ethoxycarbonyl-3-cyclohexylpropyl]amino-4-oxo-2,3,4,5-tetrahydro-1,5-benzothiazepine-5-acetic acid hydrochloride]
Inhibition against hypertensive reaction by angiotensin I (%) ([3]; 3 mg/kg orally, after 20 min.): 66%
Inhibition against hypertensive reaction by angiotensin I (%) ([3]; 3 mg/kg orally, after 60 min.): 36%
Inhibition against hypertensive reaction by angiotensin I (%) ([3]; 3 mg/kg orally, after 120 min.): 12%
Inhibition against hypertensive reaction by angiotensin I (%) ([3]; 10 mg/kg orally, after 20 min.): 92%
Inhibition against hypertensive reaction by angiotensin I (%) ([3]; 10 mg/kg orally, after 60 min.): 72%
Inhibition against hypertensive reaction by angiotensin I (%) [3, 4]: 68%
inhibition at 0.1 µM ([2]; concentration 0.1 μM): 83%
inhibition at 1 µM [2]: 95%

CCOC(=O)[C@@H](CCc1ccccc1)N[C@H]1CSc2ccccc2N(CC(=O)O)C1=O [Example 5, 3(R)-[1(R)-ethoxycarbonyl-3-phenylpropyl]amino-4-oxo-2,3,4,5-tetrahydro-1,5-benzothiazepine-5-acetic acid hydrochloride]
inhibition at 0.1 µM ([2]; concentration 0.1 μM): 40%
inhibition at 1 µM [2]: 84%

O=C(O)CN1C(=O)[C@@H](N[C@@H](CCC2CCCCC2)C(=O)O)CSc2ccccc21 [Example 50, 3(R)-[1(S)-carboxy-3-cyclohexylpropyl]amino-4-oxo-2,3,4,5-tetrahydro-1,5-benzothiazepine-5-acetic acid]
inhibition at 0.01 µM ([2]; concentration 0.01 μM): 77%
inhibition at 0.1 µM ([2]; concentration 0.1 μM): 96%

NCCCC[C@H](N[C@H]1CSc2ccccc2N(CC(=O)O)C1=O)C(=O)O [Example 60, 3(R)-[5-amino-1(S)-carboxypentyl]amino-4-oxo-2,3,4,5-tetrahydro-1,5-benzothiazepine-5-acetic acid]
inhibition at 0.1 µM ([2]; concentration 0.1 μM): 82%
inhibition at 1 µM [2]: 98%

O=C(O)CN1C(=O)[C@@H](N[C@H](CCc2ccccc2)C(=O)O)CSc2ccccc21 [Example 12, 3(R)-[1(R)-carboxy-3-phenylpropyl]amino-4-2,3,4,5-tetrahydro-1,5-benzothiazepine-5-acetic acid disodium salt]
inhibition at 1 µM [2]: 50%
inhibition at 10 µM ([2]; concentration 10 μM): 86%

NCCCCCC[C@H](N[C@H]1CSc2ccccc2N(CC(=O)O)C1=O)C(=O)O [Example 73, 3(R)-[7-amino-1(S)-carboxyheptyl]amino-4-oxo-2,3,4,5-tetrahydro-1,5-benzothiazepine-5-acetic acid]
inhibition at 0.1 µM ([2]; concentration 0.1 μM): 96%
inhibition at 1 µM [2]: 100%

O=C(O)CN1C(=O)[C@@H](N[C@@H](CCCCNC2CCCCC2)C(=O)O)CSc2ccccc21 [Example 69, 3(R)-[1(S)-carboxy-5-cyclohexylaminopentyl]amino-4-oxo-2,3,4,5-tetrahydro-1,5-benzothiazepine-5-acetic acid]
inhibition at 0.1 µM ([2]; concentration 0.1 μM): 93%
inhibition at 1 µM [2]: 100%

CCOC(=O)[C@H](CCc1ccccc1)N[C@H]1CSc2ccccc2N(CC(=O)O)C1=O.Cl [Example 7, 3(R)-[1(S)-ethoxycarbonyl-3-phenylpropyl]amino-4-oxo-2,3,4,5-tetrahydro-1,5-benzothiazepine-5-acetic acid hydrochloride]
Inhibition against hypertensive reaction by angiotensin I (%) ([3]; 3 mg/kg orally, after 20 min.): 85%
Inhibition against hypertensive reaction by angiotensin I (%) ([3]; 3 mg/kg orally, after 60 min.): 51%
Inhibition against hypertensive reaction by angiotensin I (%) ([3]; 3 mg/kg orally, after 120 min.): 27%
Inhibition against hypertensive reaction by angiotensin I (%) ([3]; 10 mg/kg orally, after 20 min.): 85%
Inhibition against hypertensive reaction by angiotensin I (%) ([3]; 10 mg/kg orally, after 60 min.): 68%
Inhibition against hypertensive reaction by angiotensin I (%) [3, 4]: 51%
inhibition at 0.1 µM ([2]; concentration 0.1 μM): 53%
inhibition at 1 µM [2]: 86%
